According to patent US8318781B2, “G-protein-conjugated receptor agonist” (Japan Science and Technology Agency, priority 2007, dated 2012):
Read-outs that look alike come from different tables or passages of the source.

What was measured:
Type in all cases: cell-based
[1] = molecular target: T1, human GPR40 (hGPR40) (Homo sapiens, UniProt O14842); experiment: Determination of intracellular Ca2+ concentration (FLIPR), cell line TXGPR40; conditions: for agonistic activity for GPR40 (in words): cells in which GPR40 has been transgenically expressed; for [Ca^2+]/GPR40 10 μM (ratio vs. LA): relative fluorescence intensity vs LA at 10 μM
T1 construct: expressed in transfected cells; doxycycline-inducible expression vector
T1 sequence (O14842 whole entry): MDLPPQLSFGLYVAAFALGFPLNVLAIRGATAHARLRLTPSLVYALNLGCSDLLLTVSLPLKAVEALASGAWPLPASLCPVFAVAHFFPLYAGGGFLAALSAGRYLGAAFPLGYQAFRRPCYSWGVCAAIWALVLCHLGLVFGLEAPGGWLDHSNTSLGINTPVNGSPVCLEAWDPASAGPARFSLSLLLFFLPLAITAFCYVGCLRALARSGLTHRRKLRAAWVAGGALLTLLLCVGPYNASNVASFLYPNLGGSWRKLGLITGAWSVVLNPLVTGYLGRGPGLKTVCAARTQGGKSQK
Method: (§1) (1) In this test, The cell lines TXGPR40, TXGPR120 and GPR120/Flp-in were plated onto a collagen-coated black 96-well plate in 2×10^5 cells/well. The 96-well plates containing the cells were centrifuged and treated with Doxycycline (final concentration 10 μg/mL), incubated in a CO2 incubator for 21 hours, then used for assay.
(§2) (2) The ligand used in this test includes NCP04, NCP14, NCG20, NCG21, NCG22, NCG23, NCP02, NCP03, NCP05, NCP06, NCG14, NCG17, NCG19, NCG28, NCG29, NCG30, NCG31, NCG34, NCG35, NCG37, NCG38, NCG44, NCG45, NCG46, and NCG54. Each ligand was dissolved in DMSO and adjusted to the concentration of 10 mM, then diluted with Hanks' Balanced Salt Solution (pH 7.4) containing 20 mM HEPES (referred to as FLIPR buffer hereinafter) to the final concentration of 1 to 100 μM. 1% DMSO was used as the negative control, and LA was used as the positive control.
(§3) The ligands and controls were placed in different 96-well plates from the plates for the cells.
(§4) (3) The 96-well plate containing the cells was removed from the CO2 incubator. A fluorescent dye prepared in a twofold higher concentration (Ca Assay Kit Component A diluted with FLIPR Buffer) was added in 50 μL/well, then allowed to stand in the dark at room temperature for one hour.
(§5) (4) After one hour, the 96-well plate containing the cells and the 96-well plate in which ligands and controls were prepared were set on FLIPR (Fluorometric Imaging Plate Reader) for determination.
(§6) (5) Fluorometry using FLIPR was carried out at a laser output of 1.0 W for five minutes. […] after the start of the determination, the ligand (25 μL) was added dropwise to the cell plate at a rate of 50 μL/sec. The intensity of fluorescence was automatically digitized by the application program installed in the FLIPR from the image taken by the CCD camera (with exposure time of 0.40 sec). The interval of data sampling was one second for the initial one minute after the start of operation, and six seconds for the subsequent four minutes.
(§7) (6) The maximum fluorescence intensity was obtained from the data showing the change in the fluorescence intensity over time observed in each well. The maximum fluorescence intensity was plotted against ligand concentration, and pEC50 was calculated. The ratio of the fluorescence intensity for each ligand to LA at 10 μM was calculated as the relative intensity of each ligand.

[2] = molecular target: T2, human GPR120 (hGPR120) (Homo sapiens, UniProt Q5NUL3); experiment: Determination of intracellular Ca2+ concentration (FLIPR), cell line GPR120/Flp-in; conditions: for [Ca^2+]/GPR120/Flp-In 10 μM (ratio vs. LA): relative fluorescence intensity vs LA at 10 μM
T2 construct: expressed in transfected cells; doxycycline-inducible expression vector
T2 sequence (Q5NUL3 1-361): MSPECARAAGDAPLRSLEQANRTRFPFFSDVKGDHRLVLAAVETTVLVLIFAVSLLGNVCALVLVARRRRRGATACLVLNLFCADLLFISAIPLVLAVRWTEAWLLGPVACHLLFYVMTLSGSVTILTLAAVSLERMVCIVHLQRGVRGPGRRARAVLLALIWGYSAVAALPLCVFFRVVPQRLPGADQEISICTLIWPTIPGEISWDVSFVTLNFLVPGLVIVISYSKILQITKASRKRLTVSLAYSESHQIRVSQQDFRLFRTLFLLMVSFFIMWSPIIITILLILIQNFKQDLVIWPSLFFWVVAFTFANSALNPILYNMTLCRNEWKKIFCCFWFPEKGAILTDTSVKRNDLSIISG
Method: as §1, §2, §3, §4, §5, §6, §7

[3] = molecular target: T1, human GPR40 (hGPR40); experiment: ERK assay, screening for GPR40 ligands in cell line TXGPR40; conditions: TXGPR40 cells, class relative to LA; for ERK/GPR40 10 μM: ligand 10 μM
Method: (§8) This Test 1 was carried out by using the following materials and methods.
(§9) (1) In this test, the cell lines TXGPR40 and TXGPR120 were plated in 35-mm dishes in 5×10^5 cells/per dish.
(§10) Each ligand was dissolved in DMSO, diluted tenfold with the medium to make the total amount of 100 μl. DMSO was used as the negative control, and PMA (phorbol-12-myristate-13-acetate) was used as the positive control.
(§11) (3) The medium was removed from the dish of the cell to reduce the total amount of liquid to 0.9 ml.
(§12) (4) The ligand solution was added dropwise to the cell solution, and dispersed by gently shaking the dish, and allowed to react at room temperature.
(§13) (5) After 5 minutes of reaction, the medium was discarded, and the remaining medium on the dish was removed on ice using an aspirator.
(§14) (6) 150 μl of Lysis buffer (50 mM HEPES (pH 7.0), 150 mM NaCl, 10% glycerol, 1% NonidetP-40, 2 mM MgCl2, 1 mM EDTA, 100 mM NaF, 10 mM sodium phosphate, 1 mM Na3VO4, 20 mM β-glycerophosphate, and Proteinase inhibitor) were added, then the cells were collected using a cell scraper.
(§15) (1) The crude enzyme solution mixed with SDS Sample Buffer was subjected to ultrasonication with a sonifier, then incubated at 90° C. for five minutes.
(§16) (2) The mixture was vortexed and centrifuged at 15,000 rpm for five minutes at 4° C.
(§17) (3) The supernatant of the centrifuged sample was applied to two 7.5% acrylamide gel slabs placed in an electrophoresis tank filled with 1×SDS-PAGE Running Buffer (25 mM Tris, 0.2 M Glycin, and 1% SDS). Electrophoresis was carried out under a constant current of 40 mA for about 80 to 90 minutes.
(§18) (1) A PVDF membrane cut in the same size as the gel slab was immersed in methanol for about 15 seconds and then shaken in Transfer Buffer C solution (25 mM Tris, 0.02% SDS, 2% methanol and 40 mM 6-aminohexanoic acid) at room temperature to swell for 15 minutes. Filter paper for blotting was cut into a 10-cm square.
(§19) (2) On the blotting apparatus were placed sequentially two pieces of filter paper immersed in A solution (0.3 M Tris, 0.02% SDS and 2% methanol), two pieces of filter paper immersed in B solution (25 mM Tris, 0.02% SDS and 2% methanol), and the membrane thereon. The gel slab after electrophoresis, and finally two pieces of filter paper immersed in C solution was placed thereon, and the apparatus was closed.
(§20) (3) The protein was transferred to the membrane at 15 V for 30 minutes.
(§21) (1) The following procedure was all carried out at room temperature. After the protein transfer, the membrane was placed into a vial containing 1×TTBS (0.2 M Tris, 1.5 M NaCl, 0.2% Tween 20) and washed for 15 minutes.
(§22) (2) TTBS was discarded, and about 10 ml of Block Ace was added and blocked on a shaker for one hour.
(§23) (1) The primary antibodies (p44/42 MAP Kinase Antibody and Phospho-p44/42 MAP Kinase Antibody) were each diluted 1000-fold with TTBS.
(§24) (2) After blocking, the Block Ace solution was removed, the solution of the primary antibody was added and allowed to react on the shaker for two hours.
(§25) (1) The secondary antibody (Anti-rabbit Ig, Horseradish Peroxidase linked F(ab′)2 fragments) was diluted 5000-fold with TTBS.
(§26) (2) The primary antibody solution was removed and the membrane was washed three times on the shaker in TTBS for five to ten minutes each.
(§27) (3) TTBS was removed and the solution of secondary antibody was added and left for 1 hour on the shaker.
(§28) (1) 2 ml each of Detection Reagent 1 and Detection Reagent 2 from ECL kit were mixed together on ice.
(§29) (2) The solution of secondary antibody was removed from the membrane reacted with the secondary antibody and then washed three times on the shaker in TTBS for five minutes each.
(§30) (3) The liquid was thoroughly removed from the membrane, which was then placed in a plastic bag, and 2 ml of the Detection Reagent mixture was added per each membrane.
(§31) (4) The membrane was kept in contact with a film in the cassette for one to five minutes, and the film was developed using an automatic developing machine.

[4] = molecular target: T2, human GPR120 (hGPR120); experiment: Determination of intracellular Ca2+ concentration (FLIPR), cell line TXGPR120; conditions: for selectivity between GPR40 and GPR120 (in words), from Tables 3 and 4: GPR40 versus GPR120, Ca2+ and ERK results; for agonistic activity for hGPR120 (in words): cells in which GPR120 has been transgenically expressed; for [Ca^2+]/GPR120 10 μM (ratio vs. LA): relative fluorescence intensity vs LA at 10 μM
Method: as §1, §2, §3, §4, §5, §6, §7

[5] = molecular target: T2, human GPR120 (hGPR120); experiment: ERK assay, screening for GPR120 ligands in cell line TXGPR120; conditions: for ERK/GPR120 10 μM: ligand 10 μM; for ERK/GPR120 10 μM / ERK/GPR120 100 μM: class relative to LA; for ERK/GPR120 100 μM: ligand 100 μM;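 on ERK/GPR120 10 μM: signals normalized between DMSO and PMA controls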
Method: as §8, §9, §10, §11, §12, §13, §14, §15, §16, §17, §18, §19, §20, §21, §22, §23, §24, §25, §26, §27, §28, §29, §30, §31

[6] = TXGPR40 cells, maximum fluorescence intensity vs ligand concentration, read-out: [Ca^2+]/GPR40 pEC50 (converted)
[7] = GPR120/Flp-in cells, maximum fluorescence intensity vs ligand concentration, read-out: [Ca^2+]/GPR120/Flp-In pEC50 (converted)

Row | Structure (SMILES) | EC50 [1] | EC50 [2] | ERK/GPR40 10 μM [3] | EC50 [1, 6] | agonistic activity for GPR40 (in words) [1] | [Ca^2+]/GPR40 10 μM (ratio vs. LA) ([1]; TXGPR40 cells) | selectivity between GPR40 and GPR120 (in words), from Tables 3 and 4 [4] | agonistic activity for hGPR120 (in words) [4] | [Ca^2+]/GPR120 10 μM (ratio vs. LA) ([4]; TXGPR120 cells) | EC50 [2, 7] | [Ca^2+]/GPR120/Flp-In 10 μM (ratio vs. LA) ([2]; GPR120/Flp-in cells) | ERK/GPR40 100 μM ([3]; ligand 100 μM) | selectivity for GPR120 in ERK assay (in words) ([5]; GPR120 versus GPR40) | ERK activation for GPR120 (in words) ([5]; TXGPR120 cells, FIGS. 5-8) | ERK/GPR120 10 μM ([5]; TXGPR120 cells) | ERK/GPR120 100 μM ([5]; TXGPR120 cells) | EC50 ([4]; TXGPR120 cells, maximum fluorescence intensity vs ligand concentration, read-out: [Ca^2+]/GPR120 pEC50 (converted))
1 | CCCCN(CCOc1ccc(CCCC(=O)O)cc1)c1ccccn1 [NCG20, 4-{4-[2-(2-butylpyridinylamino)ethoxy]phenyl}butanoic acid] | 27.5 µM | 12.6 µM |  |  |  |  |  |  |  |  |  |  |  |  |  |  | 
2 | c1ccc(Oc2cccc(CNc3ccc(CCc4nnn[nH]4)cc3)c2)cc1 [NCG17] |  |  | ++ (++ denotes 50 to 100% of LA) | 3.39 µM | showed a specific reactivity | 1.34 | selective agonists for GPR40 | exhibit a similar effect | 0.00 | 5.89 µM | 0.59 |  |  |  |  |  | 
3 | COc1cccc(N(CCOc2ccc(CCCC(=O)O)cc2)c2ccccc2)n1 [NCG37] |  |  |  | 16.2 µM |  | 0.28 | acting relatively mildly for GPR40 but acting strongly for GPR120 | exhibit a similar effect | 0.56 | 3.47 µM | 0.91 | + (+ denotes 0 to 100% of LA) | selective for GRP120 | strongly activate ERK | +++ (+++ denotes a higher value than LA) | +++ (+++ denotes a higher value than LA) | 17.8 µM
4 | CS(=O)(=O)NC(=O)CCc1ccc(NCc2cccc(Oc3ccccc3)c2)cc1 [NCG19] |  |  | ++ (++ denotes 50 to 100% of LA) | 2.88 µM | showed a specific reactivity | 1.29 | selective agonists for GPR40 | exhibit a similar effect | 0.04 | 17 µM | 0.33 |  |  |  |  |  | 
5 | CCCCN(CCOc1ccc(CCCCC(=O)O)cc1)c1ccccn1 [NCG22, 5-{4-[2-(2-butylpyridinylamino)ethoxy]phenyl}pentanoic acid] |  |  |  | 20.4 µM |  |  |  |  |  | 19.1 µM |  |  |  |  |  |  | 
6 | CCCCCCN(CCOc1ccc(CCC(=O)O)cc1)c1ccccn1 [NCP06] |  |  |  |  |  |  |  | exhibit a similar effect |  |  |  |  |  |  |  |  | 
7 | O=C(O)CCCc1ccc(OCCN(c2cccnc2)c2ccccn2)cc1 [NCG45] |  |  |  |  |  | 0.01 |  | exhibit a similar effect | 0.01 | 10 µM | 0.65 |  |  |  | + (+ denotes 0 to 100% of LA) | ++ (++ denotes 50 to 100% of LA) | 
8 | O=C(O)CCc1ccc(NCc2cccc3ncccc23)cc1 [NCG14] |  |  | ++ (++ denotes 50 to 100% of LA) |  | showed a specific reactivity | 1.17 | selective agonists for GPR40 | exhibit a similar effect | 0.00 | 14.8 µM | 0.43 |  |  |  |  |  | 
